From patent publication US11603391B2, “CATH2 derivatives” (Universiteit Utrecht Holding B.V., priority 2014, dated 2023) come the findings set out here.

No end group written: not given here.

Assay [1] concerns HD11 cells. The assay can be described thus: Neutralization of LPS-induced interleukin-1β transcription in HD11 cells (real time PCR). It counts as cell-based, chicken. To be noted: 20 μM peptide pre-incubated with 50 ng/ml LPS; 4 h. How it is done:
(§1) FIG. 11A-11B—Neutralization of lipopolysaccharide-induced interleukin-1β induction and nitric oxide production in HD11 cells by CMAP27 derived peptides. HD11 cells were seeded in 96 wells tissue culture treated plates (2×10^5 cell/mL) in RPMI-1640/10% FCS. Final concentrations of 50 ng/ml LPS were pre-incubated with or without 20 μM peptide for 30 min at 37° C. (5% CO2), applied to the cells and incubated for 4 h and 24 h. A) Transcription levels of interleukin-1 were determined by real time PCR (4 h only). B) Supernatants were collected for the determination of nitric oxide production (24 h incubations only) using the Griess assay. Significance levels: *P<0.05, **P<0.01, ***P<0.001. Data represents means±SEM from 3-4 independent experiments.
as §1, with “FIG. 12A-12B—Substitution” for “FIG. 11A-11B—Neutralization”, “of phenylalanine residues by tryptophan enhances the” for “of lipopolysaccharide-induced interleukin-1β induction and nitric oxide production”, “in vitro LPS neutralization capacity of” for “in HD11 cells by”, “h or” for “h and”
(§2) HD11 cells were seeded in 96 wells tissue culture treated plates (2×10^5 cell/mL) in RPMI-1640/10% FCS. Final concentrations of 50 ng/ml Salmonella minnesota LPS were pre-incubated with or without 20 μM peptide for 30 min at 37° C. (5% CO2), applied to the cells and incubated for 4 h and 24 h. A) Transcription levels of interleukin-1 were determined by real time PCR (4 h only). B) Supernatants were collected for the determination of nitric oxide production (24 h incubations only) using the Griess assay.
(In qPCR the cycle at which signal appears reflects the starting amount.)

The next assay concerns J774.A1 cells. The assay can be described thus: Inhibition of APEC O78-induced TNFα production by macrophages (ELISA). It counts as cell-based, murine. To be noted: 5 μM peptide, 2 h, DMEM/10% FCS; for inhibition of TNFα production induced by heat-killed bacteria: 3×10^5 CFU/ml heat-killed APEC O78; for inhibition of TNFα production induced by live bacteria: 3×10^5 CFU/ml live APEC O78. Here is the method: (§3) FIG. 9A-9C—Antibacterial activity of CMAP27 derived peptides in vitro against an avian pathogenic Escherichia coli O78 (APEC O78) field isolate. A) Antibacterial activity of peptides (5 μM) against APEC O78 (2×10^6 CFU/ml) in 50% Mueller Hinton broth using colony count assays. B) Antibacterial activity of peptides (5 μM) against APEC O78 (3×10^5 CFU/ml) in DMEM containing 10% fetal calf serum (FCS) using colony count assays. C) TNFα production by J774.A1 cells (ELISA) after 2 h incubation at 37° C. with live or heat-killed APEC O78 (3×10^5 CFU/m) in DMEM/10% FCS, in the presence or absence of 5 μM peptide. Data represents means±SEM from 3 independent experiments.
Peptide-mediated inhibition of macrophage activation induced by live or heat-killed APEC O78, was examined using J774.A1 cells, a murine macrophage cell line. For this purpose, J774.A1 cells (150,000 cells/well) cultured in DMEM containing 10% FCS were exposed during 2 h at 37° C. to 3×10^5 CFU/ml APEC O78 with or without 5 μM peptide, after which supernatants were collected and used to determine TNFα production (ELISA).
Background: In an ELISA, binding on a coated surface is turned into a signal by an enzyme label.

The subject of assay [2] is HD11 cells. The assay can be described thus: DNA-induced nitric oxide production in HD11 cells (Griess assay). It counts as cell-based, chicken. As to conditions: 5 μM peptide; 2.5 nM ODN-2006; 17 h. Here is the method: (§4) FIG. 13A-13B—CMAP27 derived peptides enhance DNA uptake and DNA-induced activation. A) HD11 cells were stimulated during 4 h with 2.5 nM Alexa-Fluor 488 labeled ODN-2006 in the absence and presence of CMAP27 derived peptides (5 μM), after which DNA uptake was analyzed by flow cytometry. B) Supernatants of HD11 cells stimulated for longer time (17 h) under these same conditions were collected and used for determination of nitric oxide production using the Griess assay. Data represents means±SEM from 3-4 independent experiments.
(§5) To study effects of peptides on the uptake of DNA, HD11 cells were seeded 3×10^5 cells in 24-wells plates, stimulated during 4 h with 2.5 nM Alexa-Fluor 488 labeled ODN-2006 in the absence and presence of CMAP27 derived peptides (5 μM), after which DNA uptake was analyzed by flow cytometry. Activation of HD11 cells was examined by collecting supernatants after 17 h under the same conditions and determination of nitric oxide production.

Assay [3] concerns HD11 cells. The assay can be described thus: Neutralization of LPS-induced nitric oxide production in HD11 cells (Griess assay). It counts as cell-based, chicken. As to conditions: 20 μM peptide pre-incubated with 50 ng/ml LPS; 24 h. How it is done:
as §1
as §1, with “FIG. 12A-12B—Substitution” for “FIG. 11A-11B—Neutralization”, “of phenylalanine residues by tryptophan enhances the” for “of lipopolysaccharide-induced interleukin-1β induction and nitric oxide production”, “in vitro LPS neutralization capacity of” for “in HD11 cells by”, “h or” for “h and”
as §2
For orientation: Nitrite, measured by Griess reagent, commonly stands in for NO production.

Assay [4] concerns avian pathogenic Escherichia coli O78 (APEC O78) field isolate. The assay can be described thus: Antibacterial colony count assay in DMEM containing 10% fetal calf serum. It counts as cell-based. As to conditions: 5 μM peptide, 3×10^5 CFU/ml, 2 h at 37° C., DMEM/10% FCS. Here is the method:
as §3
To test if peptides would be able to inhibit bacteria under more challenging conditions, e.g. in the presence of salts and serum proteins, APEC O78 was incubated with peptide in DMEM medium containing 10% fetal calf serum. In brief, bacterial survival was estimated by incubating 3×10^5 CFU/ml APEC O78 during 2 h at 37° C. in DMEM/10% FCS in the presence or absence of 5 μM peptide, after which serial dilutions were made, spread on agar media and colonies were enumerated after 24 h incubation at 37° C.

Assay [5] relates to HD11 cells. Briefly: Uptake of Alexa-Fluor 488 labeled ODN-2006 by HD11 cells (flow cytometry). As to conditions: 5 μM peptide; 2.5 nM Alexa-Fluor 488 labeled ODN-2006; 4 h. It counts as cell-based, chicken. How it is done: as §4, §5
The subject of assay [6] is HD11 cells. Briefly: Chemokine induction in HD11 cells (real time PCR). It counts as cell-based, chicken. To be noted: 20 μM peptide. Here is the method: FIG. 10—Chemokine induction by CMAP27 derived peptides in HD11 cells. HD11 cells were seeded in 96 wells tissue culture treated plates (2×10^5 cell/mL) in RPMI-1640/10% FCS and incubated at 37° C. (5% CO2) with peptide (20 μM) supplemented medium during 4 h (open bars) or 24 h (closed bars). Transcription levels of interleukin-1β, IL-8 (CXCLi2), monocyte chemotactic protein-3 (MCP-3) and RANTES (CCLi4) were determined by real time PCR. Significance levels: *P<0.05, **P<0.01, ***P<0.001. Data represents means±SEM from 3-4 independent experiments.
HD11 cells, a chicken macrophage cell line, were seeded in 96 wells tissue culture treated plates (2×10^5 cell/mL) in RPMI-1640/10% FCS and incubated at 37° C. (5% CO2) with peptide (20 μM) supplemented medium during 4 h or 24 h. Transcription levels of interleukin-1β, -8 (CXCLi2), monocyte chemotactic protein-3 (MCP-3) and RANTES (CCLi4) were determined by real time PCR.

In the case of “CMAP1-21-NH2: C-terminally truncated CMAP27 derivative, residues 1-21”, the “LPS-induced IL-1β expression blocked” value with HD11 cells [1] was 93.5%. In addition, in the assay on J774.A1 cells, the “inhibition of TNFα production induced by heat-killed bacteria” value (“inhibition … by heat-killed bacteria” below) is reported as “substantially inhibited” and the “inhibition of TNFα production induced by live bacteria” value was “substantially inhibited”. Also, the “DNA-induced nitric oxide production” value with HD11 cells [2] is reported as “increasing”. Moreover, the “LPS-induced NO production blocked” value in the assay on HD11 cells [3] is recorded as 78.9%. Further, in assay [4], the “inhibition of bacterial growth (antibacterial activity, in words)” value (from here on “inhibition of bacterial growth”) was “substantially inhibited”. Further, in the assay on HD11 cells [5], the “uptake of ODN-2006 by HD11 cells” value is recorded as “enhanced the uptake”.

For the substance “CMAP4-21-NH2: N-terminally truncated variant of CMAP1-21 (RFLRKIRRFRPKVTITIQ-NH2)”, in the assay on HD11 cells [1], the “LPS-induced IL-1β expression blocked” value amounted to 80.5%. The “DNA-induced nitric oxide production” value in the assay with HD11 cells [2] was “increasing”. In the assay with HD11 cells [3], the “LPS-induced NO production blocked” value is reported as 51%. In assay [4], the “inhibition of bacterial growth” value was “substantially inhibited”. For the same substance, the “uptake of ODN-2006 by HD11 cells” value in the assay on HD11 cells [5] was “enhanced the uptake”.

Take “CMAP7-21-NH2: N-terminally truncated variant of CMAP1-21, 15 amino acid residues (RKIRRFRPKVTITIQ-NH2)”: in the assay on HD11 cells [1], the “LPS-neutralizing activity (block of LPS-induced IL-1β expression, in words)” value is given as “lack LPS-neutralizing activity”. In the assay with J774.A1 cells, the “inhibition … by heat-killed bacteria” value was “inhibited to some extent”. The “DNA-induced nitric oxide production” value in the assay with HD11 cells [2] was “increasing”. The “inhibition of bacterial growth” value in assay [4] is “lacking antibacterial activity”. Besides, in the assay with HD11 cells [6] (4 h or 24 h), the “induction of CXCLi2/IL-8 transcription” value was “maintained a capacity to induce” and the “induction of MCP-3 transcription” value is “maintained a capacity to induce”. Also, the “uptake of ODN-2006 by HD11 cells” value in the assay with HD11 cells [5] is recorded as “enhanced the uptake”.

On to “RFGRFLRKIRRFRPKVTITIQGSARF-NH2 [CMAP1-26-NH2]”, for which the “LPS-induced IL-1β expression blocked” value in the assay on HD11 cells [1] is reported as 90.8%. For the same substance, in the assay on J774.A1 cells, the “inhibition … by heat-killed bacteria” value is “substantially inhibited” and the “inhibition of TNFα production induced by live bacteria” value was “substantially inhibited”. For the same substance, in the assay with HD11 cells [2], the “DNA-induced nitric oxide production” value is “increasing”. Also, the “LPS-induced NO production blocked” value in the assay on HD11 cells [3] turned out to be 96.2%. Moreover, the “inhibition of bacterial growth” value in assay [4] is reported as “substantially inhibited”. Moreover, the surviving bacteria in assay [4] (detection limit) is listed as less than 100 cells/ml. Moreover, in the assay on HD11 cells [6] (4 h or 24 h), the “induction of CXCLi2/IL-8 transcription” value is given as “induce transcription”, the “induction of MCP-3 transcription” value is “induce transcription” and the “induction of proinflammatory cytokine IL-1β transcription” value is on record as “not induced”. The “induction of CCLi4/RANTES transcription” value in the assay with HD11 cells [6] (prolonged stimulation (24 h) needed) is given as “induce transcription”. The “uptake of ODN-2006 by HD11 cells” value with HD11 cells [5] is “enhanced the uptake”.
